PubChem BioAssay (NCI)
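Test compounds were applied to cells in 96-well plates for 48 hours at 5 doses. GI50 marks 50% less growth. TGI is the concentration that stops growth completely.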

What was measured:
Assay in all cases: NCI anticancer screen, dose series, 48 h
786-0 renal = system: 786-0 renal
A498 renal = system: A498 renal
A549 NSCLC = system: A549 NSCLC
ACHN renal = system: ACHN renal
BT-549 breast = system: BT-549 breast
CAKI-1 renal = system: CAKI-1 renal
CCRF-CEM leukemia = system: CCRF-CEM leukemia
COLO 205 colon = system: COLO 205 colon
DU-145 prostate = system: DU-145 prostate
EKVX NSCLC = system: EKVX NSCLC
HCC-2998 colon = system: HCC-2998 colon
HCT-116 colon = system: HCT-116 colon
HCT-15 colon = system: HCT-15 colon
HOP-62 NSCLC = system: HOP-62 NSCLC
HOP-92 NSCLC = system: HOP-92 NSCLC
HS 578T breast = system: HS 578T breast
HT29 colon = system: HT29 colon
IGROV1 ovarian = system: IGROV1 ovarian
K-562 leukemia = system: K-562 leukemia
KM12 colon = system: KM12 colon
LOX IMVI melanoma = system: LOX IMVI melanoma
M14 melanoma = system: M14 melanoma
MALME-3M melanoma = system: MALME-3M melanoma
MCF7 breast = system: MCF7 breast
MDA-MB-231 breast = system: MDA-MB-231 breast
MDA-MB-435 = system: MDA-MB-435
MOLT-4 leukemia = system: MOLT-4 leukemia
NCI-H226 lung = system: NCI-H226 lung
NCI-H23 lung = system: NCI-H23 lung
NCI-H460 lung = system: NCI-H460 lung
NCI-H522 lung = system: NCI-H522 lung
NCI/ADR-RES ovarian = system: NCI/ADR-RES ovarian
OVCAR-3 ovarian = system: OVCAR-3 ovarian
OVCAR-4 ovarian = system: OVCAR-4 ovarian
OVCAR-5 ovarian = system: OVCAR-5 ovarian
OVCAR-8 ovarian = system: OVCAR-8 ovarian
PC-3 prostate = system: PC-3 prostate
RPMI-8226 leukemia = system: RPMI-8226 leukemia
RXF 393 renal = system: RXF 393 renal
SF-268 CNS = system: SF-268 CNS
SF-295 CNS = system: SF-295 CNS
SF-539 CNS = system: SF-539 CNS
SK-MEL-2 melanoma = system: SK-MEL-2 melanoma
SK-MEL-28 melanoma = system: SK-MEL-28 melanoma
SK-MEL-5 melanoma = system: SK-MEL-5 melanoma
SN12C renal = system: SN12C renal
SNB-19 CNS = system: SNB-19 CNS
SNB-75 CNS = system: SNB-75 CNS
SR leukemia = system: SR leukemia
SW-620 colon = system: SW-620 colon
T-47D breast = system: T-47D breast
TK-10 renal = system: TK-10 renal
U251 CNS = system: U251 CNS
UACC-257 melanoma = system: UACC-257 melanoma
UACC-62 melanoma = system: UACC-62 melanoma
UO-31 renal = system: UO-31 renal

Compound Nc1[nH]nc2nc(-c3cc(Cl)ccc3Cl)cc(-c3ccc(F)cc3)c12 has a GI50 (786-0 renal) of 23.7 µM, a TGI (786-0 renal) of 59.2 µM and a GI50 (A498 renal) of 20.4 µM. The TGI (A498 renal) was 42.2 µM, the GI50 (A549 NSCLC) was 22.9 µM and the TGI (A549 NSCLC) was 87.3 µM. The GI50 (ACHN renal) was 31.9 µM, the TGI (ACHN renal) was over 100 µM and the GI50 (BT-549 breast) was 14.3 µM. For the same compound, the TGI (BT-549 breast) was 31.3 µM, the GI50 (CAKI-1 renal) was 26.9 µM and the TGI (CAKI-1 renal) was over 100 µM. It also gave a GI50 (CCRF-CEM leukemia) of 0.813 µM, a TGI (CCRF-CEM leukemia) of 11.3 µM and a GI50 (COLO 205 colon) of 16.5 µM. It also gave a TGI (COLO 205 colon) of 34.1 µM, a GI50 (DU-145 prostate) of 23.6 µM and a TGI (DU-145 prostate) of 53.8 µM. The GI50 (EKVX NSCLC) was 17.5 µM, the TGI (EKVX NSCLC) was 58.3 µM and the GI50 (HCC-2998 colon) was 19.1 µM. It also gave a TGI (HCC-2998 colon) of 36.1 µM, a GI50 (HCT-116 colon) of 18.9 µM and a TGI (HCT-116 colon) of 39.7 µM. It also gave a GI50 (HCT-15 colon) of 28.5 µM, a TGI (HCT-15 colon) of over 100 µM and a GI50 (HOP-62 NSCLC) of 22.7 µM. For the same compound, the TGI (HOP-62 NSCLC) was 47.8 µM, the GI50 (HOP-92 NSCLC) was 14.5 µM and the TGI (HOP-92 NSCLC) was 30 µM. It also gave a GI50 (HS 578T breast) of 24.1 µM, a TGI (HS 578T breast) of 53.7 µM and a GI50 (HT29 colon) of 32.5 µM. For the same compound, the TGI (HT29 colon) was over 100 µM, the GI50 (IGROV1 ovarian) was 19 µM and the TGI (IGROV1 ovarian) was 48.7 µM. For the same compound, the GI50 (K-562 leukemia) was 43.9 µM, the TGI (K-562 leukemia) was over 100 µM and the GI50 (KM12 colon) was 22.6 µM. For the same compound, the TGI (KM12 colon) was 58 µM, the GI50 (LOX IMVI melanoma) was 19.3 µM and the TGI (LOX IMVI melanoma) was 38 µM. The GI50 (M14 melanoma) was 27.9 µM, the TGI (M14 melanoma) was 49.8 µM and the GI50 (MALME-3M melanoma) was 27.2 µM. For the same compound, the TGI (MALME-3M melanoma) was 59.3 µM, the GI50 (MCF7 breast) was 11.8 µM and the TGI (MCF7 breast) was 37.5 µM. The GI50 (MDA-MB-231 breast) was 19.9 µM, the TGI (MDA-MB-231 breast) was 61.1 µM and the GI50 (MDA-MB-435) was 30.3 µM. For the same compound, the TGI (MDA-MB-435) was 56 µM, the GI50 (MOLT-4 leukemia) was 23.2 µM and the TGI (MOLT-4 leukemia) was over 100 µM. For the same compound, the GI50 (NCI-H226 lung) was 22.6 µM, the TGI (NCI-H226 lung) was 60.6 µM and the GI50 (NCI-H23 lung) was 28.8 µM. The TGI (NCI-H23 lung) was 72.1 µM, the GI50 (NCI-H460 lung) was 19.7 µM and the TGI (NCI-H460 lung) was 58 µM. The GI50 (NCI-H522 lung) was 14.4 µM, the TGI (NCI-H522 lung) was 31.5 µM and the GI50 (NCI/ADR-RES ovarian) was 23 µM. The TGI (NCI/ADR-RES ovarian) was 59.9 µM, the GI50 (OVCAR-3 ovarian) was 24 µM and the TGI (OVCAR-3 ovarian) was 65.4 µM. For the same compound, the GI50 (OVCAR-4 ovarian) was 39.2 µM, the TGI (OVCAR-4 ovarian) was over 100 µM and the GI50 (OVCAR-5 ovarian) was 24.3 µM. For the same compound, the TGI (OVCAR-5 ovarian) was 59.8 µM, the GI50 (OVCAR-8 ovarian) was 14.3 µM and the TGI (OVCAR-8 ovarian) was 59.5 µM. For the same compound, the GI50 (PC-3 prostate) was 28.3 µM, the TGI (PC-3 prostate) was 90.3 µM and the GI50 (RPMI-8226 leukemia) was 18.4 µM. The TGI (RPMI-8226 leukemia) was 50.5 µM, the GI50 (RXF 393 renal) was 18.3 µM and the TGI (RXF 393 renal) was 42.3 µM. For the same compound, the GI50 (SF-268 CNS) was 18.2 µM, the TGI (SF-268 CNS) was 43.6 µM and the GI50 (SF-295 CNS) was 25.7 µM. It also gave a TGI (SF-295 CNS) of 73.4 µM, a TGI (SF-539 CNS) of 21.1 µM and a GI50 (SK-MEL-2 melanoma) of 21.2 µM. The TGI (SK-MEL-2 melanoma) was 43.2 µM, the GI50 (SK-MEL-28 melanoma) was 36.9 µM and the TGI (SK-MEL-28 melanoma) was over 100 µM. For the same compound, the GI50 (SK-MEL-5 melanoma) was 16.6 µM, the TGI (SK-MEL-5 melanoma) was 34.1 µM and the GI50 (SN12C renal) was 20.4 µM. The TGI (SN12C renal) was 38.6 µM, the GI50 (SNB-19 CNS) was 35.7 µM and the TGI (SNB-19 CNS) was over 100 µM. For the same compound, the GI50 (SNB-75 CNS) was 51.5 µM, the TGI (SNB-75 CNS) was over 100 µM and the GI50 (SR leukemia) was 18 µM. For the same compound, the TGI (SR leukemia) was 69.2 µM, the GI50 (SW-620 colon) was 25.4 µM and the TGI (SW-620 colon) was 68.7 µM. The GI50 (T-47D breast) was 20.2 µM, the TGI (T-47D breast) was over 100 µM and the GI50 (TK-10 renal) was 52.9 µM. The TGI (TK-10 renal) was over 100 µM, the GI50 (U251 CNS) was 21.6 µM and the TGI (U251 CNS) was 44.8 µM. The GI50 (UACC-257 melanoma) was 25.2 µM, the TGI (UACC-257 melanoma) was 68.3 µM and the GI50 (UACC-62 melanoma) was 16 µM. It also gave a TGI (UACC-62 melanoma) of 32.4 µM, a GI50 (UO-31 renal) of 13.8 µM and a TGI (UO-31 renal) of 34.7 µM.
